One test concerns the target α-glucosidase. The note with it: peptide from ovalbumin; ref Yu et al. [2012]; read-out: α-glucosidase inhibitory activity IC50; cited from earlier work.
The target of test [1] is T1, DPP-4 from porcine kidney (Sus scrofa, UniProt P22411).
T1 construct: DPP-4 from porcine kidney was purchased from Sigma (D7052); purchased Sigma D7052; host or cells: porcine kidney tissue
Kind of test: Dipeptidyl peptidase-4 (DPP-4) inhibitory activity (Gly-Pro-p-nitroanilide). In kind it is biochemical. The note with it: synthetic peptides, mean n = 3; for IC50: read-out: Enzyme inhibitory activity (IC50) DPP-4 (converted). As for the experimental part:
DPP-4 inhibitory activity (IC50) was determined using a modified method of Lacroix and Li-Chan (2013). DPP-4 from porcine kidney was purchased from Sigma (D7052). The lyophilized peptide fractions were re-suspended in 0.1 M Tris–HCl buffer, pH 8.0. The test sample (25 μL) was preincubated with an equal volume of the substrate Gly-Pro-p-nitroanilide (1.6 mM) at 37 °C for 10 min. Afterwards, 50 μL of DPP-4 (0.01 U/mL, in 0.1 M Tris–HCl buffer, pH 8.0) was added and the mixture was incubated at 37 °C for 60 min. The reaction was stopped by the addition of 100 μL of 1 M sodium acetate buffer, pH 4.0. The released p-nitroanilide as a hydrolysis product was measured at λ = 405 nm.
The IC50 value was defined as the concentration of inhibitor required to inhibit 50 % of DPP-4 activity under assay conditions.

Test [2] deals with T2, ACE (EC 3.4.15.1; from rabbit lung) (Oryctolagus cuniculus, UniProt P12822).
T2 construct: The ACE (EC 3.4.15.1; from rabbit lung, Sigma, A6778); purchased Sigma A6778; host or cells: rabbit lung tissue
T2 sequence (P12822 34-1310): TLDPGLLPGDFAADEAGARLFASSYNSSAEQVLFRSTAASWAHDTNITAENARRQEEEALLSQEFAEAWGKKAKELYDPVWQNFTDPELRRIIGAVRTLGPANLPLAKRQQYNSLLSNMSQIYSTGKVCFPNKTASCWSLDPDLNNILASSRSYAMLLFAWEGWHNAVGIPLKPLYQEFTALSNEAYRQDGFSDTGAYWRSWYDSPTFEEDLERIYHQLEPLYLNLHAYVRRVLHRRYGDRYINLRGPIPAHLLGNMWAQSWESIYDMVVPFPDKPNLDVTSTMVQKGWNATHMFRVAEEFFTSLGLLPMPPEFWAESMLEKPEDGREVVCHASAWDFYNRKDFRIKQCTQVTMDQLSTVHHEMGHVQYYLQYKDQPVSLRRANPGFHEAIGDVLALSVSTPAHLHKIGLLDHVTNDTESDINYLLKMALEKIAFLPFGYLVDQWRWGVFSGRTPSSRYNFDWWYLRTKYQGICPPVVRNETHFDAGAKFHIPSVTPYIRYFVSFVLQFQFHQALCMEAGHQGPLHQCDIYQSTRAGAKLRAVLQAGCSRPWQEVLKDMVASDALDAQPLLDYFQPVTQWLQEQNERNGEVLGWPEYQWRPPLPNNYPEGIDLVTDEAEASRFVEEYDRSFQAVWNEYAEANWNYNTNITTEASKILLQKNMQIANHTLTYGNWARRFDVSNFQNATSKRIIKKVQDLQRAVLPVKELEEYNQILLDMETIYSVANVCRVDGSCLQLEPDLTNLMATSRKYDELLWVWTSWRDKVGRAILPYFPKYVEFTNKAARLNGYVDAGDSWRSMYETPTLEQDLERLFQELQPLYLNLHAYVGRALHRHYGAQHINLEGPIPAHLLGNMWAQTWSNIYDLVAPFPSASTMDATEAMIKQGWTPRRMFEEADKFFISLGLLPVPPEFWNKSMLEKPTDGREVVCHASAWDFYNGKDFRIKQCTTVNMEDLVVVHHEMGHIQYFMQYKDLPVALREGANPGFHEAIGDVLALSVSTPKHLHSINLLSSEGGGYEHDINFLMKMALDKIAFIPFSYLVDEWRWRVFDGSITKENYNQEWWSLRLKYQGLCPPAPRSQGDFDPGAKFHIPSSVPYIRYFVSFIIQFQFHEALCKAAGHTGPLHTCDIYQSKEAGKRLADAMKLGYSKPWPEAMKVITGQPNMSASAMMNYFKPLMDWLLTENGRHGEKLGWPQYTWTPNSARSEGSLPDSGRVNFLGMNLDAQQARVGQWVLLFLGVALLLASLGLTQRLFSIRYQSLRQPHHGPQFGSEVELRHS
Put plainly: ACE inhibitory activity (HHL substrate, spectrophotometric). In kind it is biochemical. The note with it: synthetic peptides; mean n = 3; read-out: Enzyme inhibitory activity (IC50) ACE (converted). The procedure:
The ACE (EC 3.4.15.1; from rabbit lung, Sigma, A6778) inhibitory activity of hydrolysate and peptide fractions was measured spectrophotometrically according to Miguel et al. ([2004]). A hydrolysate solution (40 µL) mixed with a Hippuryl-His-Leu (HHL) (Sigma H4884) solution (5 mM in 100 mM potassium phosphate containing 300 mM sodium chloride, pH 8.3) as substrate was preincubated at 37 °C for 5 min, and the reaction was initiated by adding 20 µL (2 mU) of ACE solution and incubating for 30 min at the same temperature. The enzymatic reaction was halted by the addition of 150 µL of 1 M HCl. The liberated hippuric acid was extracted using 1 mL of ethyl acetate and vigorous shaking, after which 750 µL of the upper layer was transferred into a test tube and evaporated in a vacuum. The hippuric acid left in the tubes was re-dissolved in 800 µL of distilled water and the absorbance was measured at λ = 228 nm. All samples were tested in three replications. The inhibition activity was calculated using the following equation:
Inhibition activity (%) = [(A − B)/A] × 100 %
where A is the reaction blank, of which the mixture contained the same volume of the buffer solution instead of the ACE inhibitor sample; B is the reaction in the presence of both ACE and its inhibitor. The IC50 value was estimated from a dose–response curve of an inhibitor versus the ACE activity.

The target of test [3] is α-Glucosidase from Saccharomyces cerevisiae (Saccharomyces cerevisiae, UniProt P53341). Put plainly: α-Glucosidase inhibitory activity (pNPG substrate). The note with it: synthetic peptides, mean n = 3; for IC50: read-out: Enzyme inhibitory activity (IC50) α-Glucosidase (converted). In kind it is biochemical. As for the experimental part:
The α-glucosidase inhibition assay was performed according to the method of Yu et al. ([2011]). α-Glucosidase from Saccharomyces cerevisiae (Sigma G0660) hydrolyzes the substrate—p-nitrophenyl glucopyranoside (pNPG) (Sigma N1377) and the thus produced p-nitrophenol can be measured spectrophotometrically. 5 µL of the α-glucosidase solution (10 U/mL, in 0.1 M potassium phosphate buffer, pH 6.8) was premixed with 10 µL of the sample solution at different concentrations (in 10 % DMSO) in 620 µL of 0.1 M potassium phosphate buffer (pH 6.8). Following incubation at 37.5 °C for 20 min, 10 µL of p-nitrophenyl glucopyranoside (pNPG 10 mM) as substrate was added to the mixture to start the reaction and was then incubated at 37.5 °C for 30 min, followed by addition of 650 µL of 1 M Na2CO3 solution to terminate the reaction. The amount of released product (p-nitrophenol) was measured at λ = 410 nm. The IC50 value was defined as the concentration of inhibitor required to inhibit 50 % of α-glucosidase activity under assay conditions.

Test [4] in a line: Antioxidant activity as ability to scavenge DPPH free radicals. The note with it: synthetic peptides; mean n = 3. As for the experimental part:
The antioxidant activity of the obtained hydrolysates was assessed on the basis of the radical scavenging effect of the stable 1,1-diphenyl-2-picrylhydrazyl [DPPH (Sigma, D21140-0)]—free radical activity according to Yen and Chen ([1995]), with minor modifications. The tested samples were dissolved in water to a final volume of 1 mL and mixed with 1 mL of ethanol (98 %). The reaction was started by adding 0.5 mL of […] DPPH in ethanol. The mixtures were left for 30 min at room temperature and the absorbance of the resulting solutions was measured at 517 nm. For calibration, aqueous solutions of known Trolox concentrations ranging from 2 to 20 μg (able to scavenge 500 μL of 0.3 mM DPPH radical solution) were used. Radical scavenging activity of the peptides was expressed as µM troloxeq/mg protein.

Test [5] is described as follows: Fe(II) ion chelation (ferrozine). The note with it: synthetic peptides; mean n = 3. The procedure:
Chelation of iron ions by hydrolysates was estimated by the method of Xu et al. ([2007]) with modifications. A 250 μL sample was mixed with 1,250 μL H2O and 110 μL 1 mM FeCl2. After 2 min, 1 mL of 500 μM ferrozine (Sigma 160601) aqueous solution was added and the mixture was allowed to react for 10 min. The absorbance of ferrous iron–ferrozine complex was measured spectrophotometrically at λ = 562 nm. A known concentration of FeCl2 (0–20 μg) was used to generate a standard curve and the ability to chelate iron ions was expressed as μg Fe^2+/mg protein.

The nature of test [6]: FRAP method (ferric reducing antioxidant power). Conditions: synthetic peptides; mean n = 3. The procedure:
The ferric reducing antioxidant power (FRAP) method was used to determine the antioxidative capacity of hydrolysates according to Benzie and Strain ([1996]). 3 mL of FRAP working solution [300 mM acetate buffer pH 3.6; 10 mM 2,4,6,tripyridyl-s-triazine (TPTZ) (Fluka, 93285) and 20 mM FeCl3 × 6 H2O (10:1:1 v/v)] was mixed with 1 mL of the sample. After 10 min of reaction, the absorbance was measured at λ = 593 nm. An aqueous solution of known Fe(II) concentration was used for calibration (in the range from 100 to 1,000 μg). Results were expressed as μg Fe^2+/mg protein.

The term IC50 denotes the concentration needed to halve the response being measured.

Values joined by “and” are separate entries in the source; they are usually repeats but may differ in a detail not shown here. Identical values can stand only once. No end group written: not given here.

T1 sequence (P22411 whole entry): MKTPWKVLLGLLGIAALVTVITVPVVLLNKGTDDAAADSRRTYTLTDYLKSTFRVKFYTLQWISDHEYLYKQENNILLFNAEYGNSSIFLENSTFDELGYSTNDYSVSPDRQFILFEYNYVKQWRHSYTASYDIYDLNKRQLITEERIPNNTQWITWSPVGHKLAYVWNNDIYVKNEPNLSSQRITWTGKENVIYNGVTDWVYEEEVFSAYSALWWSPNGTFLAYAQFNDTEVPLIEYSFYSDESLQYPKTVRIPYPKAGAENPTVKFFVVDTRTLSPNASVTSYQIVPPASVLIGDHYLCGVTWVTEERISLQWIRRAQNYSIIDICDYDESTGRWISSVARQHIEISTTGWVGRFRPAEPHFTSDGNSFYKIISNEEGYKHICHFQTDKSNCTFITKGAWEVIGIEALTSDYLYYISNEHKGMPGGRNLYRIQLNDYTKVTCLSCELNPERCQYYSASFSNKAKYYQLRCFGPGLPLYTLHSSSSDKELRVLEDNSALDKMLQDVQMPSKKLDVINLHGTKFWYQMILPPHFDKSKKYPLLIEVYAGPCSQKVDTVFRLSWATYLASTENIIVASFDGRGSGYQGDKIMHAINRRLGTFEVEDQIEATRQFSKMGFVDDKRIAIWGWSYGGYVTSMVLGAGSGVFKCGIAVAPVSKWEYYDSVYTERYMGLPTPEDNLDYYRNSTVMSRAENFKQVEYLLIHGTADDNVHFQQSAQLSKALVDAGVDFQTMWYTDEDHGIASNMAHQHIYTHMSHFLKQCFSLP
Sequence of α-Glucosidase from Saccharomyces cerevisiae (P53341 whole entry): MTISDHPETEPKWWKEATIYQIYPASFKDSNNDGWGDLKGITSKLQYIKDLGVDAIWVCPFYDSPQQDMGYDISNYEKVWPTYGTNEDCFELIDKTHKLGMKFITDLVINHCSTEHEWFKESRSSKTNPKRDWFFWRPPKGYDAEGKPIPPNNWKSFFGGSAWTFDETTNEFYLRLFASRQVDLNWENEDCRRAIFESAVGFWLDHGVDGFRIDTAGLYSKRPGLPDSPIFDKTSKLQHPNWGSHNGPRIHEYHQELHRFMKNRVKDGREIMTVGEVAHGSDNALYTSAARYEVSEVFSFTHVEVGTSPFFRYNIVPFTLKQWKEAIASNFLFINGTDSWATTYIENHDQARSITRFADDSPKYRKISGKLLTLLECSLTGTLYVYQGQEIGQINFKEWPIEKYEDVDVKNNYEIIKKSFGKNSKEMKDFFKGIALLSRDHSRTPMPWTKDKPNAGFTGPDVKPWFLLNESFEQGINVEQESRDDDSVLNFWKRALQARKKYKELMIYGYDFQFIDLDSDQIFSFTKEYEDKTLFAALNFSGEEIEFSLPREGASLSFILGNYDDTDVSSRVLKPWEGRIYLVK

Take KLPGF: the 50% inhibitory concentration (IC50) on α-glucosidase was 59.5 µM.

As for VTGRFAGHPAAQ [VTGRFAGHPAAQ], the IC50 in test [1] was 1160 µM; in test [2] it was 22.5 µM; in test [3], 302 µM.

YIEAVNKVSPRAGQF-OH [YIEAVNKVSPRAGQF]: the “Antioxidant activity DPPH” value in test [4] is 2.2 µM Troloxeq/mg and 2.2c µM Troloxeq/mg. For the same substance, the “Antioxidant activity CHEL.” value in test [5] turned out to be 25.2b µg Fe^2+/mg. For the same substance, the “Enzyme inhibitory activity (IC50) DPP-4” value in test [1] is “no impact”. The “Antioxidant activity FRAP” value in test [6] was 61.0 µg Fe^2+/mg and 61.0b µg Fe^2+/mg. In test [2], the IC50 is 5.6 µM. The “Enzyme inhibitory activity (IC50) α-Glucosidase” value in test [3] is reported as “no impact”.

Take YINQMPQKSRE [YINQMPQKSRE]: the IC50 in test [1] was 160 µM; in test [2], 7.25 µM; in test [3], 1220 µM.

As to YINQMPQKSREA [YINQMPQKSREA], the IC50 is 243 µM in test [1], 8.6 µM in test [2] and 310 µM in test [3].

Source of the values: publication PMC4302234, “Multifunctional peptides derived from an egg yolk protein hydrolysate: isolation and characterization” (Amino Acids, 2014).
